Key:
[1] = test system: ATP-driven reduction of NAD+ to NADH by submitochondrial particles; assay: RET (reverse electron transfer) test linked to cytochrome P-450 liver microsome activation
Text: The effect of this is to drive an endergonic reduction of NAD^+ to NADH as long as there is sufficient presence of ATP. For the process to be effective, therefore, there must be a sufficient quantity of NAD^+ in the sample preparation to serve as a substrate for conversion by competent enzymes. It may also be required that other enzymes such as glutamate, or alcohol or pyruvate dehydrogenases be added from exogenous sources in the event these materials are lost by rupture of the intact mitochondria during particle preparation.
For a reverse electron transport assay in which NAD^+ is to be reduced to NADH, one obvious requirement of the assay medium is NAD^+ to be a substrate. To supply a source of electrons, succinate is a preferred substrate which can be oxidized by the complex II enzymes. In order to couple the donor electrons from succinate conversion to NAD^+ reduction, it is necessary to block transport of the electron flow through complex III enzymes. This can be easily accomplished by adding antimycin, a known inhibitor of the complex III enzymes. With this combination, if the mitochondrial membranes and enzymes are otherwise functional, electrons would flow from coenzyme Q back through complex I enzymes to NAD^+. Thus NAD^+ would be reduced to NADH, as long as ATP was present to energize the conversion. Thus, the initiation of the reaction can be controlled by the timing of ATP addition.

NADH oxidation by SMP = type: biochemical, beef; conditions: at the tested concentrations; no cytochrome P-450 enzymes
[2] = test system: NADH oxidase activity of submitochondrial particles (enzyme complexes I, III, and IV); assay: ETr (electron transfer) test linked to cytochrome P-450 liver microsome activation; conditions: all tested concentrations; bovine serum albumin instead of microsomes

## c1ccc2cc3ccccc3cc2c1 [anthracene]
[1]; 1 ppm, no liver microsomes
  inhibition in RET test, secondary controls lacking liver microsomes: no inhibition

## Brc1ccccc1 [bromobenzine]
[1]; 69 ppm, microsomes from phenobarbital-induced rats
  inhibition relative to controls lacking the test compound: 68%
[1]; 69 ppm, no microsomes
  inhibition in controls containing the test compound but lacking microsomes: 22%

## ClC(Cl)(Cl)Cl [carbon tetrachloride]
NADH oxidation by SMP
  inhibition in conventional ETr protocol: no inhibition
[2]
  inhibition of NADH oxidase activity, secondary control lacking liver microsomes: 4%
